Like-named read-outs stand apart in the source and are kept apart here.
What was measured:
[1] = system: CLL (Chronic lymphocytic leukemia) PDCs; experiment: Anti-proliferation assay on CLL PDCs; assay type: cell-based, human; details: for inhibition at 10 µM: Homo sapiens
Procedure: The outermost rows/columns of the plates were filled with PBS (pH 7.4) to avoid an edge-effect and were considered as blanks. Standardized aqueous extracts identified in Table 2 were prepared in main stock solutions by dissolving 1 mg of extract in 1 ml PBS (phosphate-buffered saline, pH 7.4). […] The plate was incubated in a CO2 incubator for 0/N incubation for 24 hours. […] Once extracts were added to incubated cells and mixed gently, the plate was given a brief spin and incubated in the CO2 incubator for 72 hours. The plate was removed from the incubator and 10 ul of detection reagent (CellTiterGlo®; Promega Corporation, Wisconsin, USA) added to each well of the 384 well plate. […] The assay described above is a two-dimensional (2D) assay.

[2] = system: AML (Acute myeloid leukemia) PDCs, M4 subtype (SB 33866); experiment: Anti-proliferation assay on AML PDCs; assay type: cell-based, human; details: for inhibition at 10 µM: assay drug control @ 10 uM
Procedure: Anti-proliferation assays were performed on 6 types of primary patient-derived cancer cells (PDCs) from 6 different human donors, as described in Table 1:
Tests were performed in 384-well plates (24×16), using 1250 to 10,000 cells/well depending on the size and proliferation rate of different PDCs, in 30 ul of culture media (DMEM/F12 with serum and growth factors), with control wells set aside on each plate for media alone (4 wells), untreated PDCs (4 wells), and for PDCs treated with 10 ul of a known anti-cancer drug as a control. […] The outermost rows/columns of the plates were filled with PBS (pH 7.4) to avoid an edge-effect and were considered as blanks.
Standardized aqueous extracts identified in Table 2 were prepared in main stock solutions by dissolving 1 mg of extract in 1 ml PBS (phosphate-buffered saline, pH 7.4).
Anti-Proliferation Assay Protocol: 30 ul of cells were plated at the density of 1250 to 10,000 cells/well. The plate was incubated in a CO2 incubator for 0/N incubation for 24 hours. […] Final assay concentrations of made from stock solutions of standardized aqueous extracts identified in Table 2 were 100 ug/ml, 30 ug/ml, and 10 ug/ml. Since 10 ul extract was added to 30 ul of cell suspension, it diluted 4 times, so to maintain the final assay concentrations, 4× concentrated extract solutions (400 ug/ml, 120 ug/ml, and 40 ug/mo) were prepared from main stock (1 mg/ml) and added to the plate. In all experiments, 10 ul of 4 times concentrated stock (4×) was added to wells containing 30 ul of cell suspension to achieve final assay concentrations at 1X.
Once extracts were added to incubated cells and mixed gently, the plate was given a brief spin and incubated in the CO2 incubator for 72 hours. The plate was removed from the incubator and 10 ul of detection reagent (CellTiterGlo®; Promega Corporation, Wisconsin, USA) added to each well of the 384 well plate. The plate was incubated (10 min) and luminescence counts measured, with luminescence produced proportional to the number of viable (living, metabolically active) cells for each assay. The assay described above is a two-dimensional (2D) assay.
(§1) In this Example, AML drugs were used as disease specific controls.
As discussed above in Example I, 6 extracts (Ayuflex®, Capros®, Phyto-BGS®, PrimaVie®, Sensoril®, and Ayuric®) were tested on AML PDC-SB cells (33866, M-4 type, subject) at 3 concentrations: 100 ug/ml, 30 ug/ml, and 10 ug/ml.

[3] = system: Acute Promyelocytic Leukemia PDCs (APL-SB 46120); experiment: Anti-proliferation assay on APL subtype AML PDCs; assay type: cell-based; details: Homo sapiens
Procedure: as §1
The AML PDCs evaluated below were an Acute Promyelocytic Leukemia (APL, APML) subtype, APL-SB 46120, from a human subject.
IC25 values were calculated using IC50 and hill slope. […] The drugs were used in these concentrations on the new APL subtype cells as described further below. […]

AML cell line HL60 = experiment: Anti-proliferation assay on HL60 AML cells; assay type: cell-based; details: for inhibition at 10 µM: 72 h, Plate 1
Procedure: 2500 cells were plated per well in 384 well plates. […] CellTiter Glo was used as a detection reagent. Extracts were incubated with the AML HL60 cells for 72 hours.

[4] = system: Prostate cancer (PC-3) cells; experiment: Anti-proliferation assay on prostate cancer cells; assay type: cell-based; details: Homo sapiens
Procedure: Cells were plated at 1.25 k/well in 384 well plates. […] Anti-proliferative assays were generally performed as discussed in Example I above, in triplicate, with detection reagent CellTiterGlo. Tables 80-82 show data for controls for assays on prostate cancer (PC-3 cells), and that the data passed quality control parameters. Tables 83-85 show data for controls for assays on ovarian cancer (OVCAR-3 cells), and that the data passed quality control parameters.

[5] = system: Pancreatic cancer (Panc-1) cells; experiment: Anti-proliferation assay on pancreatic cancer cells; assay type: cell-based; details: Homo sapiens
Procedure: Cells were plated at 1.25 k/well in 384 well plates. […] Anti-proliferative assays were generally performed as described in Example I above, in triplicate, with detection reagent CellTiterGlo. Tables 98-99 show data for controls for assays on histiocytic lymphoma (U-937) cells, and that the data passed quality control parameters. Tables 101-102 show data for controls for assays on pancreatic cancer (Panc-1) cells, and that the data passed quality control parameters. […] The assay is generally as described in Example I.

[6] = 10 uM, 72 h, read-out: % Inhibition Average (SD)
[7] = 10 uM, 72 h, read-out: % Inhibition n1
[8] = 10 uM, 72 h, read-out: % Inhibition n2
[9] = 10 uM, 72 h, read-out: % Inhibition n3
[10] = drug 10 uM, read-out: inhibition

IC50 ([2]; Homo sapiens, AML cells (M4), read-out: Inhibitory Concentration IC50): 103 nM
IC50 (AML cell line HL60; Homo sapiens, HL-60, dose-response curve, FIG. 35): 79 nM
Structure (SMILES): COc1cccc2c1C(=O)c1c(O)c3c(c(O)c1C2=O)C[C@@](O)(C(=O)CO)C[C@@H]3O[C@H]1C[C@H](N)[C@H](O)[C@H](C)O1 [Doxorubicin, doxorubicin]
inhibition at 10 µM ([1]; Doxorubicin @ 10 uM, read-out: % Inhibition Avg): 2%
inhibition at 10 µM ([1]; Doxorubicin @ 10 uM, read-out: % Inhibition n1): 16%
inhibition at 10 µM ([1]; Doxorubicin @ 10 uM, read-out: % Inhibition n2): -9%
inhibition at 10 µM ([1]; Doxorubicin @ 10 uM, read-out: % Inhibition n3): 1%
inhibition at 10 µM ([1]; drug alone @ 10 uM, read-out: % Inhibition Avg): 55%
inhibition at 10 µM ([1]; drug alone @ 10 uM, read-out: % Inhibition, single replicates): 50%
% Inhibition, single replicates ([1]; drug alone @ 10 uM, 10 µM): 61%
anti-cancer activity (in words) ([1]; extracts 100, 30, 10 ug/ml, doxorubicin 10 uM): relatively low inhibitory activity
Inhibitory Concentration IC75 ([2]; AML cells (M4)): 260 nM
inhibition at 10 µM ([2]; Homo sapiens, read-out: % Inhibition Avg): 72%
inhibition at 10 µM ([2]; Homo sapiens, read-out: % Inhibition n1): 70%
inhibition at 10 µM ([2]; Homo sapiens, read-out: % Inhibition n2): 73%
inhibition at 3 µM ([2]; Homo sapiens, drug alone 3 uM, read-out: inhibition of AML proliferation): 100%
inhibition at 3 µM ([2]; Homo sapiens, drug alone @ 3 uM, read-out: % Inhibition Avg): 100%
inhibition at 3 µM ([2]; Homo sapiens, drug alone @ 3 uM, read-out: % Inhibition n1): 100%
inhibition at 3 µM ([2]; Homo sapiens, drug alone @ 3 uM, read-out: % Inhibition n2): 100%
inhibition at 3 µM ([2]; Homo sapiens, drug alone @ 3 uM, read-out: % Inhibition n3): 100%
inhibition at 10 µM ([3]; Plate 1 quality control, read-out: % Inhibition Average): 96%
inhibition at 10 µM ([3]; Plate 1 quality control, read-out: % Inhibition n1): 97%
inhibition at 10 µM ([3]; Plate 1 quality control, read-out: % Inhibition n2): 96%
inhibition at 10 µM ([3]; Plate 1 quality control, read-out: % Inhibition n3): 95%
inhibition at 10 µM ([3]; Plate 2 quality control, read-out: % Inhibition Average): 97%
inhibition at 10 µM ([3]; Plate 2 quality control, read-out: % Inhibition n1): 98%
inhibition at 10 µM ([3]; Plate 2 quality control, read-out: % Inhibition n2): 97%
inhibition at 10 µM ([3]; Plate 2 quality control, read-out: % Inhibition n3): 97%
IC25 (AML cell line HL60; HL60 AML cells, potential dosing for further experiments): 59 nM
inhibition at 3 µM (AML cell line HL60; Homo sapiens, HL-60): ≥ 90%
inhibition at 10 µM (AML cell line HL60; Homo sapiens, HL-60, read-out: % Inhibition Average (SD)): 0%
inhibition at 10 µM (AML cell line HL60; Homo sapiens, HL-60, read-out: % Inhibition n1): 100%
inhibition at 10 µM (AML cell line HL60; Homo sapiens, HL-60, read-out: % Inhibition n2): 100%
inhibition at 10 µM (AML cell line HL60; Homo sapiens, HL-60, read-out: % Inhibition n3): 100%
inhibition at 10 µM [4, 6]: 70%
inhibition at 10 µM [4, 7]: 70%
inhibition at 10 µM [4, 8]: 70%
inhibition at 10 µM [4, 9]: 71%
inhibition at 10 µM [4, 10]: 70%
inhibition at 10 µM [5, 6]: 94%
inhibition at 10 µM [5, 7]: 94%
inhibition at 10 µM [5, 8]: 94%
inhibition at 10 µM [5, 9]: 95%
inhibition at 10 µM [5, 10]: 94%

— US20220233624A9, “ANTI-CANCER AND ANTI-PROLIFERATIVE COMPOSITIONS, AND METHODS FOR THEIR USE IN TREATING CANCER” (Natreon, Inc., priority 2020, published 2022)
